{"source": "paper PMC10862865", "about": "(bioRxiv, 2024)", "molecular_target": "tau4RD (Homo sapiens, UniProt P10636)", "sequence (P10636 561-685 limits assumed)": "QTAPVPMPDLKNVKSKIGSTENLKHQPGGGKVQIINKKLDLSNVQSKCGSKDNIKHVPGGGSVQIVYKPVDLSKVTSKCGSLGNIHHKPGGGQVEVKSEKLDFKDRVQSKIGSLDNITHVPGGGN", "test": "Unseeded heparin-induced tau4RD aggregation, thioflavin T fluorescence", "type": "biochemical", "conditions": "1:2 protein:compound molar ratio; ThT fluorescence", "data": [{"smiles": "O=C1c2ccccc2-n2c1nc1ccccc1c2=O", "note": "[compound 1, tryptanthrin]", "values": [{"measurement": "Inhibition of heparin-induced tau4RD aggregation in initial screen (in words)", "result": "among the most potent inhibitors"}]}]}
